In the supplement of paper PMC10307832:

Key:
Test in all cases: relative viability (nuclei count vs DMSO), 5 days (fraction); higher = more cells survive
[1] = compound: Cc1ccc(NC(=O)c2ccc(CN3CCN(C)CC3)cc2)cc1Nc1nccc(-c2cccnc2)n1 [Imatinib] + COc1cccc2cc(-c3nc([C@H]4CC[C@H](C(=O)O)CC4)n4ncnc(N)c34)[nH]c12 [OSI-027] (partner 0.5 µM)
Summary of the method: (§1)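 Lung cancer cell lines were seeded in 1536-well plates and dosed by pin tool the next day, with either a single drug or a fixed anchor-drug dose combined with five library-drug doses (not always all listed) spaced in √10 steps. Five days later, one step fixed the cells and stained their nuclei (final 0.05% Triton X-100, 1% formaldehyde, 1 ug/ml Hoechst), and nuclei were counted on 4× images. Relative viability is the nuclei count in treated wells divided by the count in vehicle wells, and each value is the median of duplicate plates.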

[2] = compound: Cc1ccc(NC(=O)c2ccc(CN3CCN(C)CC3)cc2)cc1Nc1nccc(-c2cccnc2)n1 [Imatinib] + CS(=O)(=O)N1CCN(Cc2cc3nc(-c4cccc5[nH]ncc45)nc(N4CCOCC4)c3s2)CC1 [Pictilisib] (partner 1 µM)
Summary of the method: as §1

[3] = compound: Cc1ccc(NC(=O)c2ccc(CN3CCN(C)CC3)cc2)cc1Nc1nccc(-c2cccnc2)n1 [Imatinib] + C[C@@H](Oc1cc(-c2cnn(C3CCNCC3)c2)cnc1N)c1c(Cl)ccc(F)c1Cl [Crizotinib] (partner 1 µM)
Summary of the method: as §1

[4] = compound: Cc1ccc(NC(=O)c2ccc(CN3CCN(C)CC3)cc2)cc1Nc1nccc(-c2cccnc2)n1 [Imatinib] + Cc1nc(NC(=O)N2CCC[C@H]2C(N)=O)sc1-c1ccnc(C(C)(C)C(F)(F)F)c1 [Alpelisib] (partner 2 µM)
Summary of the method: as §1

NCI-H2347
relative viability ([1]; first compound 0.02 µM): 0.287 | relative viability ([1]; first compound 0.06325 µM): 0.384 | relative viability ([1]; first compound 0.2 µM): 0.318 | relative viability ([1]; first compound 0.6325 µM): 0.442 | relative viability ([1]; first compound 2 µM): 0.426 | relative viability ([2]; first compound 0.02 µM): 0.414 | relative viability ([2]; first compound 0.06325 µM): 0.508 | relative viability ([2]; first compound 0.2 µM): 0.64 | relative viability ([2]; first compound 0.6325 µM): 0.453 | relative viability ([2]; first compound 2 µM): 0.738 | relative viability ([3]; first compound 0.02 µM): 0.675 | relative viability ([3]; first compound 0.06325 µM): 0.674 | relative viability ([3]; first compound 0.2 µM): 0.729 | relative viability ([3]; first compound 0.6325 µM): 0.647 | relative viability ([3]; first compound 2 µM): 0.797 | relative viability ([4]; first compound 0.02 µM): 1.15 | relative viability ([4]; first compound 0.06325 µM): 0.968 | relative viability ([4]; first compound 0.2 µM): 0.933 | relative viability ([4]; first compound 0.6325 µM): 1.11 | relative viability ([4]; first compound 2 µM): 1.09

NCI-H2405
relative viability ([1]; first compound 0.02 µM): 0.629 | relative viability ([1]; first compound 0.2 µM): 0.645 | relative viability ([1]; first compound 0.6325 µM): 0.592 | relative viability ([1]; first compound 2 µM): 0.641 | relative viability ([2]; first compound 0.02 µM): 0.482 | relative viability ([2]; first compound 0.2 µM): 0.428 | relative viability ([2]; first compound 0.6325 µM): 0.353 | relative viability ([2]; first compound 2 µM): 0.52 | relative viability ([3]; first compound 0.02 µM): 0.917 | relative viability ([3]; first compound 0.06325 µM): 0.879 | relative viability ([3]; first compound 0.2 µM): 0.827 | relative viability ([3]; first compound 0.6325 µM): 0.772 | relative viability ([3]; first compound 2 µM): 0.843 | relative viability ([4]; first compound 0.02 µM): 0.922 | relative viability ([4]; first compound 0.2 µM): 0.823 | relative viability ([4]; first compound 0.6325 µM): 0.643 | relative viability ([4]; first compound 2 µM): 0.95

NCI-H3122
relative viability ([1]; first compound 0.02 µM): 1.11 | relative viability ([1]; first compound 0.06325 µM): 0.831 | relative viability ([1]; first compound 0.2 µM): 1.09 | relative viability ([1]; first compound 2 µM): 1.1 | relative viability ([2]; first compound 0.02 µM): 0.647 | relative viability ([2]; first compound 0.06325 µM): 0.551 | relative viability ([2]; first compound 0.2 µM): 0.572 | relative viability ([2]; first compound 0.6325 µM): 0.666 | relative viability ([2]; first compound 2 µM): 0.679 | relative viability ([3]; first compound 0.02 µM): 0.253 | relative viability ([3]; first compound 0.06325 µM): 0.292 | relative viability ([3]; first compound 0.2 µM): 0.324 | relative viability ([3]; first compound 0.6325 µM): 0.313 | relative viability ([3]; first compound 2 µM): 0.255 | relative viability ([4]; first compound 0.02 µM): 0.763 | relative viability ([4]; first compound 0.06325 µM): 0.939 | relative viability ([4]; first compound 0.2 µM): 0.894 | relative viability ([4]; first compound 0.6325 µM): 0.865 | relative viability ([4]; first compound 2 µM): 0.837

PC-3 [JPC-3]
relative viability ([1]; first compound 0.02 µM): 0.792 | relative viability ([1]; first compound 0.2 µM): 0.854 | relative viability ([1]; first compound 0.6325 µM): 0.877 | relative viability ([1]; first compound 2 µM): 0.711 | relative viability ([2]; first compound 0.02 µM): 0.715 | relative viability ([2]; first compound 0.6325 µM): 0.774 | relative viability ([2]; first compound 2 µM): 0.653 | relative viability ([3]; first compound 0.02 µM): 0.979 | relative viability ([3]; first compound 0.2 µM): 1.02 | relative viability ([3]; first compound 0.6325 µM): 0.921 | relative viability ([3]; first compound 2 µM): 0.96 | relative viability ([4]; first compound 0.02 µM): 1.08 | relative viability ([4]; first compound 0.2 µM): 1.03 | relative viability ([4]; first compound 0.6325 µM): 1.05 | relative viability ([4]; first compound 2 µM): 0.979

PC-14
relative viability ([1]; first compound 0.02 µM): 0.991 | relative viability ([1]; first compound 0.06325 µM): 0.282 | relative viability ([1]; first compound 0.2 µM): 0.856 | relative viability ([1]; first compound 0.6325 µM): 0.76 | relative viability ([1]; first compound 2 µM): 0.833 | relative viability ([2]; first compound 0.02 µM): 0.69 | relative viability ([2]; first compound 0.2 µM): 0.874 | relative viability ([2]; first compound 0.6325 µM): 0.688 | relative viability ([2]; first compound 2 µM): 0.859 | relative viability ([3]; first compound 0.02 µM): 1.15 | relative viability ([3]; first compound 0.06325 µM): 0.936 | relative viability ([3]; first compound 0.2 µM): 0.935 | relative viability ([3]; first compound 0.6325 µM): 0.958 | relative viability ([3]; first compound 2 µM): 0.848 | relative viability ([4]; first compound 0.02 µM): 1.15 | relative viability ([4]; first compound 0.2 µM): 1.13 | relative viability ([4]; first compound 0.6325 µM): 0.926 | relative viability ([4]; first compound 2 µM): 0.854

RERF-LC-KJ
relative viability ([1]; first compound 0.02 µM): 0.598 | relative viability ([1]; first compound 0.06325 µM): 0.418 | relative viability ([1]; first compound 0.2 µM): 0.544 | relative viability ([1]; first compound 0.6325 µM): 0.492 | relative viability ([1]; first compound 2 µM): 0.551 | relative viability ([2]; first compound 0.02 µM): 0.636 | relative viability ([2]; first compound 0.06325 µM): 0.422 | relative viability ([2]; first compound 0.2 µM): 0.541 | relative viability ([2]; first compound 0.6325 µM): 0.487 | relative viability ([2]; first compound 2 µM): 0.498 | relative viability ([3]; first compound 0.02 µM): 0.867 | relative viability ([3]; first compound 0.06325 µM): 0.885 | relative viability ([3]; first compound 0.2 µM): 0.51 | relative viability ([3]; first compound 0.6325 µM): 0.855 | relative viability ([3]; first compound 2 µM): 0.826 | relative viability ([4]; first compound 0.02 µM): 0.841 | relative viability ([4]; first compound 0.06325 µM): 0.723 | relative viability ([4]; first compound 0.2 µM): 0.8 | relative viability ([4]; first compound 2 µM): 0.8

SK-LU-1
relative viability ([1]; first compound 0.02 µM): 0.332 | relative viability ([1]; first compound 0.06325 µM): 0.409 | relative viability ([1]; first compound 0.2 µM): 0.319 | relative viability ([1]; first compound 0.6325 µM): 0.264 | relative viability ([1]; first compound 2 µM): 0.365 | relative viability ([2]; first compound 0.02 µM): 0.738 | relative viability ([2]; first compound 0.06325 µM): 0.682 | relative viability ([2]; first compound 0.2 µM): 0.633 | relative viability ([2]; first compound 2 µM): 0.611 | relative viability ([3]; first compound 0.02 µM): 1.04 | relative viability ([3]; first compound 0.06325 µM): 0.927 | relative viability ([3]; first compound 0.2 µM): 1.11 | relative viability ([3]; first compound 0.6325 µM): 0.926 | relative viability ([3]; first compound 2 µM): 1.04 | relative viability ([4]; first compound 0.02 µM): 1.07 | relative viability ([4]; first compound 0.06325 µM): 1.37 | relative viability ([4]; first compound 0.2 µM): 1.19 | relative viability ([4]; first compound 0.6325 µM): 0.962

SK-MES-1
relative viability ([1]; first compound 0.02 µM): 0.717 | relative viability ([1]; first compound 0.06325 µM): 0.407 | relative viability ([1]; first compound 0.2 µM): 0.642 | relative viability ([1]; first compound 0.6325 µM): 0.521 | relative viability ([1]; first compound 2 µM): 0.597 | relative viability ([2]; first compound 0.02 µM): 0.366 | relative viability ([2]; first compound 0.06325 µM): 0.323 | relative viability ([2]; first compound 0.2 µM): 0.39 | relative viability ([2]; first compound 0.6325 µM): 0.357 | relative viability ([2]; first compound 2 µM): 0.379 | relative viability ([3]; first compound 0.02 µM): 1.08 | relative viability ([3]; first compound 0.06325 µM): 0.999 | relative viability ([3]; first compound 0.2 µM): 1.16 | relative viability ([3]; first compound 0.6325 µM): 1.05 | relative viability ([3]; first compound 2 µM): 0.971 | relative viability ([4]; first compound 0.02 µM): 0.887 | relative viability ([4]; first compound 0.06325 µM): 0.891 | relative viability ([4]; first compound 0.2 µM): 1.03 | relative viability ([4]; first compound 0.6325 µM): 0.954 | relative viability ([4]; first compound 2 µM): 0.988

SW 1573
relative viability ([1]; first compound 0.02 µM): 0.708 | relative viability ([1]; first compound 0.06325 µM): 0.24 | relative viability ([1]; first compound 0.2 µM): 0.685 | relative viability ([1]; first compound 0.6325 µM): 0.573 | relative viability ([1]; first compound 2 µM): 0.548 | relative viability ([2]; first compound 0.02 µM): 0.623 | relative viability ([2]; first compound 0.06325 µM): 0.501 | relative viability ([2]; first compound 0.2 µM): 0.528 | relative viability ([2]; first compound 0.6325 µM): 0.561 | relative viability ([2]; first compound 2 µM): 0.483 | relative viability ([3]; first compound 0.02 µM): 0.996 | relative viability ([3]; first compound 0.2 µM): 0.956 | relative viability ([3]; first compound 0.6325 µM): 0.726 | relative viability ([3]; first compound 2 µM): 0.755 | relative viability ([4]; first compound 0.02 µM): 0.826 | relative viability ([4]; first compound 0.06325 µM): 0.785 | relative viability ([4]; first compound 0.2 µM): 1.13 | relative viability ([4]; first compound 0.6325 µM): 0.842 | relative viability ([4]; first compound 2 µM): 0.927

UMC-11
relative viability ([1]; first compound 0.02 µM): 0.514 | relative viability ([1]; first compound 0.06325 µM): 0.542 | relative viability ([1]; first compound 0.2 µM): 0.64 | relative viability ([1]; first compound 0.6325 µM): 0.499 | relative viability ([1]; first compound 2 µM): 0.456 | relative viability ([2]; first compound 0.02 µM): 0.81 | relative viability ([2]; first compound 0.06325 µM): 0.749 | relative viability ([2]; first compound 0.2 µM): 1 | relative viability ([2]; first compound 0.6325 µM): 1.06 | relative viability ([2]; first compound 2 µM): 0.837 | relative viability ([3]; first compound 0.02 µM): 0.702 | relative viability ([3]; first compound 0.06325 µM): 0.647 | relative viability ([3]; first compound 0.2 µM): 0.56 | relative viability ([3]; first compound 0.6325 µM): 0.564 | relative viability ([3]; first compound 2 µM): 0.818 | relative viability ([4]; first compound 0.02 µM): 0.982 | relative viability ([4]; first compound 0.06325 µM): 1.18 | relative viability ([4]; first compound 0.2 µM): 0.957 | relative viability ([4]; first compound 0.6325 µM): 1.03 | relative viability ([4]; first compound 2 µM): 1.03
